The structures appear in SMILES notation.

The target in this assay is T1, NHE-1 (Homo sapiens, UniProt P19634).
T1 construct: endogenous in cells; host or cells: HT-29
T1 sequence (P19634 whole entry): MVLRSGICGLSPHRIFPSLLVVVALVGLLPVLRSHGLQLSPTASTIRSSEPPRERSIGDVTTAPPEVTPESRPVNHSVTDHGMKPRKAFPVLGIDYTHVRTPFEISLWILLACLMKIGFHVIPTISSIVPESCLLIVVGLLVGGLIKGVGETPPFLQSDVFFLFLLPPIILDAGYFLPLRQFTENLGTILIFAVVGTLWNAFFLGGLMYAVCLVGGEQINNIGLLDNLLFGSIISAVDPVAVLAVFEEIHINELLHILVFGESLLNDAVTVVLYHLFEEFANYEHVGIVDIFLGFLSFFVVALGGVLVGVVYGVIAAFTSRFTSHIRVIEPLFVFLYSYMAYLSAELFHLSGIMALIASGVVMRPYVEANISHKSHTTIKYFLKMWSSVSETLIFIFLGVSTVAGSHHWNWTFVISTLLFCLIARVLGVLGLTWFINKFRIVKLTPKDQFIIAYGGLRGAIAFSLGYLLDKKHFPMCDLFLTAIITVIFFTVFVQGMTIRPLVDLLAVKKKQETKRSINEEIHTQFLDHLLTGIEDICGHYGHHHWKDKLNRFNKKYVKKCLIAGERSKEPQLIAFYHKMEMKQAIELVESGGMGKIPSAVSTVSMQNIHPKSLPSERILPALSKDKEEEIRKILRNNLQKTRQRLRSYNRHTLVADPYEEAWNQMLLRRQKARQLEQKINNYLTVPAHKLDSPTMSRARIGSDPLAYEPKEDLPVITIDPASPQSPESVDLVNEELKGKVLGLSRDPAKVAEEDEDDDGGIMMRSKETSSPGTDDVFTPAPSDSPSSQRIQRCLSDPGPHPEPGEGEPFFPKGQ
Briefly: Evaluation of NHE-1 Inhibition (pHi) in HT-29 cells. The assay is classed as cell-based. To be noted: BCECF dye, 50% inhibition of the intracellular pH recovery, read-out: NHE1 HT29 pHi IC50. In short, it runs like this: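 Intracellular pH measured with BCECF in HT-29 cells after 24 h culture. Cells dye-loaded 30 min at 37° C, then acid-loaded with NH4Cl-containing choline buffer (pH 7.5) for 30 min at RT. Compounds added on an FDSS6000 fluorescence reader.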
For orientation: IC50 means the concentration needed to halve the response being measured. With `N=C(N)NC(=O)c1ccc(C2CCN(C(=O)c3ccc(F)cc3)CC2)c(C(F)(F)F)c1` [N-{4-[1-(4-Fluoro-benzoyl)-piperidin-4-yl]-3-trifluoromethyl-benzoyl}-guanidine], the IC50 came to 110 nM. To `Cc1cc(C2CCN(C(=O)c3ccc(F)cc3)CC2)c(S(C)(=O)=O)cc1C(=O)NC(=N)N` [N-{4-[1-(4-Fluoro-benzoyl)-piperidin-4-yl]-5-methanesulfonyl-2-methyl-benzoyl}-guanidine] belongs 23 nM. To `N=C(N)NC(=O)c1ccc(C2CCN(C(=O)c3ccc(F)cc3)C2)c(C(F)(F)F)c1` (stereo not shown) [N-{4-[1-(4-Fluoro-benzoyl)-pyrrolidin-3-yl]-3-trifluoromethyl-benzoyl}-guanidine] belongs 40 nM; to `N=C(N)NC(=O)c1ccc(C2CCN(C(=O)c3ccc(O)cc3)CC2)c(C(F)(F)F)c1` [N-{4-[1-(4-Hydroxy-benzoyl)-piperidin-4-yl]-3-trifluoromethyl-benzoyl}-guanidine], 25 nM; to `N=C(N)NC(=O)c1ccc(C2=CCN(C(=O)c3ccc(-n4ccnc4)cc3)CC2)c(C(F)(F)F)c1` [N-{4-[1-(4-Imidazol-1-yl-benzoyl)-1,2,3,6-tetrahydro-pyridin-4-yl]-3-trifluoromethyl-benzoyl}-guanidine], 33 nM.

On to `N=C(N)NC(=O)c1ccc(C2CCN(C(=O)c3ccc(-n4ccnc4)cc3)CC2)c(C(F)(F)F)c1` [N-{4-[1-(4-Imidazol-1-yl-benzoyl)-piperidin-4-yl]-3-trifluoromethyl-benzoyl}-guanidine], for which the IC50 turned out to be 71 nM. Take `C[S+]([O-])c1ccc(C(=O)N2CCC(c3ccc(C(=O)NC(=N)N)cc3C(F)(F)F)CC2)cc1` (stereo not shown) [N-{4-[1-(4-Methanesulfinyl-benzoyl)-piperidin-4-yl]-3-trifluoromethyl-benzoyl}-guanidine]: the IC50 turned out to be 28 nM. To `CS(=O)(=O)c1ccc(C(=O)N2CC=C(c3ccc(C(=O)NC(=N)N)cc3C(F)(F)F)CC2)cc1` [N-{4-[1-(4-Methanesulfonyl-benzoyl)-1,2,3,6-tetrahydro-pyridin-4-yl]-3-trifluoromethyl-benzoyl}-guanidine] belongs 49 nM; to `Cc1cc(C2CCN(C(=O)c3ccc(S(C)(=O)=O)cc3)CC2)c(C(F)(F)F)cc1C(=O)NC(=N)N` [N-{4-[1-(4-Methanesulfonyl-benzoyl)-piperidin-4-yl]-2-methyl-5-trifluoromethyl-benzoyl}-guanidine], 20 nM.

In the case of `CS(=O)(=O)c1ccc(C(=O)N2CCC(c3ccc(C(=O)NC(=N)N)cc3C(F)(F)F)CC2)cc1` [N-{4-[1-(4-Methanesulfonyl-benzoyl)-piperidin-4-yl]-3-trifluoromethyl-benzoyl}-guanidine], the IC50 turned out to be 21 nM. For `COc1ccc(C(=O)N2CCC(c3ccc(C(=O)NC(=N)N)cc3C(F)(F)F)CC2)cc1` [N-{4-[1-(4-Methoxy-benzoyl)-piperidin-4-yl]-3-trifluoromethyl-benzoyl}-guanidine], the IC50 came out at 195 nM. To `COc1ccc(C(=O)N2CCC(c3ccc(C(=O)NC(=N)N)cc3C(F)(F)F)CC2)c2ccccc12` [N-{4-[1-(4-Methoxy-naphthalene-1-carbonyl)-piperidin-4-yl]-3-trifluoromethyl-benzoyl}-guanidine] belongs 320 nM. To `COCc1ccc(C(=O)N2CCC(c3ccc(C(=O)NC(=N)N)cc3C(F)(F)F)CC2)cc1` [N-{4-[1-(4-Methoxymethyl-benzoyl)-piperidin-4-yl]-3-trifluoromethyl-benzoyl}-guanidine] belongs 122 nM; to `CN1CCOc2cc(C(=O)N3CCC(c4ccc(C(=O)NC(=N)N)cc4C(F)(F)F)CC3)ccc21` [N-{4-[1-(4-Methyl-3,4-dihydro-2H-benzo[1,4]oxazine-7-carbonyl)-piperidin-4-yl]-3-trifluoromethyl-benzoyl}-guanidine], 47 nM; to `N=C(N)NC(=O)c1ccc(C2CCN(C(=O)c3ccc(-c4cnco4)cc3)CC2)c(C(F)(F)F)c1` [N-{4-[1-(4-Oxazol-5-yl-benzoyl)-piperidin-4-yl]-3-trifluoromethyl-benzoyl}-guanidine], 109 nM. To `N=C(N)NC(=O)c1ccc(C2CCN(C(=O)c3ccc(-n4cccn4)cc3)CC2)c(C(F)(F)F)c1` [N-{4-[1-(4-Pyrazol-1-yl-benzoyl)-piperidin-4-yl]-3-trifluoromethyl-benzoyl}-guanidine] belongs 88 nM; to `N=C(N)NC(=O)c1ccc(C2CCN(C(=O)c3ccc(N4CCCC4)cc3)CC2)c(C(F)(F)F)c1` [N-{4-[1-(4-Pyrrolidin-1-yl-benzoyl)-piperidin-4-yl]-3-trifluoromethyl-benzoyl}-guanidine], 250 nM; to `N=C(N)NC(=O)c1ccc(C2CCN(C(=O)c3ccc(S(=O)(=O)C(F)(F)F)cc3)CC2)c(C(F)(F)F)c1` [N-{4-[1-(4-Trifluoromethanesulfonyl-benzoyl)-piperidin-4-yl]-3-trifluoromethyl-benzoyl}-guanidine], 230 nM. Take `Cc1cc(C2CCN(C(=O)c3ccc(C#N)cc3)CC2)c(C(F)(F)F)cc1C(=O)NC(=N)N` [N-{4-[1-(4-cyano-benzoyl)-piperidin-4-yl]-2-methyl-5-trifluoromethyl-benzoyl}-guanidine]: the IC50 was 36 nM. To `Cc1cc(C2CCN(C(=O)c3ccc(C#N)cc3)CC2)c(S(C)(=O)=O)cc1C(=O)NC(=N)N` [N-{4-[1-(4-cyano-benzoyl)-piperidin-4-yl]-5-methanesulfonyl-2-methyl-benzoyl}-guanidine] belongs 27 nM; to `N=C(N)NC(=O)c1ccc(C2CCN(C(=O)c3cncc(-c4ccccc4)c3)CC2)c(C(F)(F)F)c1` [N-{4-[1-(5-Phenyl-pyridine-3-carbonyl)-piperidin-4-yl]-3-trifluoromethyl-benzoyl}-guanidine], 204 nM; to `N#Cc1ccc(C(=O)N2CCC(c3ccc(C(=O)NC(=N)N)cc3C(F)(F)F)CC2)cn1` [N-{4-[1-(6-Cyano-pyridine-3-carbonyl)-piperidin-4-yl]-3-trifluoromethyl-benzoyl}-guanidine], 39 nM.

In the case of `N=C(N)NC(=O)c1ccc(C2CCN(C(=O)c3ccc(O)nc3)CC2)c(C(F)(F)F)c1` [N-{4-[1-(6-Hydroxy-pyridine-3-carbonyl)-piperidin-4-yl]-3-trifluoromethyl-benzoyl}-guanidine], the IC50 was 21 nM.

As to `N=C(N)NC(=O)c1ccc(C2CCN(C(=O)c3ccc(-n4ccnc4)nc3)CC2)c(C(F)(F)F)c1` [N-{4-[1-(6-Imidazol-1-yl-pyridine-3-carbonyl)-piperidin-4-yl]-3-trifluoromethyl-benzoyl}-guanidine], the IC50 was 14 nM. To `COc1ccc2cc(C(=O)N3CCC(c4ccc(C(=O)NC(=N)N)cc4C(F)(F)F)CC3)ccc2c1` [N-{4-[1-(6-Methoxy-naphthalene-2-carbonyl)-piperidin-4-yl]-3-trifluoromethyl-benzoyl}-guanidine] belongs 390 nM; to `COc1ccc(C(=O)N2CCC(c3ccc(C(=O)NC(=N)N)cc3C(F)(F)F)CC2)cn1` [N-{4-[1-(6-Methoxy-pyridine-3-carbonyl)-piperidin-4-yl]-3-trifluoromethyl-benzoyl}-guanidine], 58 nM; to `N=C(N)NC(=O)c1ccc(C2CCN(C(=O)c3ccc(-n4cccn4)nc3)CC2)c(C(F)(F)F)c1` [N-{4-[1-(6-Pyrazol-1-yl-pyridine-3-carbonyl)-piperidin-4-yl]-3-trifluoromethyl-benzoyl}-guanidine], 92 nM.

`N=C(N)NC(=O)c1ccc(C2CCN(C(=O)c3ccc(N4CCCC4)nc3)CC2)c(C(F)(F)F)c1` [N-{4-[1-(6-Pyrrolidin-1-yl-pyridine-3-carbonyl)-piperidin-4-yl]-3-trifluoromethyl-benzoyl}-guanidine]: the IC50 stood at 75 nM. To `N=C(N)NC(=O)c1ccc(C2CCN(C(=O)c3ccc4ncsc4c3)CC2)c(C(F)(F)F)c1` [N-{4-[1-(Benzothiazole-6-carbonyl)-piperidin-4-yl]-3-trifluoromethyl-benzoyl}-guanidine] belongs 114 nM. Regarding `N=C(N)NC(=O)c1ccc(C2CCN(C(=O)c3ccco3)CC2)c(C(F)(F)F)c1` [N-{4-[1-(Furan-2-carbonyl)-piperidin-4-yl]-3-trifluoromethyl-benzoyl}-guanidine], the IC50 was found to be 55 nM.

For `N=C(N)NC(=O)c1ccc(C2CCN(C(=O)c3ccco3)C2)c(C(F)(F)F)c1` (stereo not shown) [N-{4-[1-(Furan-2-carbonyl)-pyrrolidin-3-yl]-3-trifluoromethyl-benzoyl}-guanidine], the IC50 was determined as 11 nM. For `N=C(N)NC(=O)c1ccc(C2CCN(C(=O)c3cn4ccccc4n3)CC2)c(C(F)(F)F)c1` [N-{4-[1-(Imidazo[1,2-a]pyridine-2-carbonyl)-piperidin-4-yl]-3-trifluoromethyl-benzoyl}-guanidine], the IC50 was 17 nM. Turning to `N=C(N)NC(=O)c1ccc(C2CCN(C(=O)C3COCCN3)CC2)c(C(F)(F)F)c1` (stereo not shown) [N-{4-[1-(Morpholine-3-carbonyl)-piperidin-4-yl]-3-trifluoromethyl-benzoyl}-guanidine], the concentration for half-maximal inhibition (IC50) was 35 nM.

`N=C(N)NC(=O)c1ccc(C2CCN(C(=O)c3cccc4ccccc34)CC2)c(C(F)(F)F)c1` [N-{4-[1-(Naphthalene-1-carbonyl)-piperidin-4-yl]-3-trifluoromethyl-benzoyl}-guanidine]: the IC50 worked out at 260 nM. For the molecule `N=C(N)NC(=O)c1ccc(C2CCN(C(=O)C3CCCCN3)CC2)c(C(F)(F)F)c1` (stereo not shown) [N-{4-[1-(Piperidine-2-carbonyl)-piperidin-4-yl]-3-trifluoromethyl-benzoyl}-guanidine], the IC50 came out at 9 nM.

Take `N=C(N)NC(=O)c1ccc(C2CCN(C(=O)C3CCCNC3)CC2)c(C(F)(F)F)c1` (stereo not shown) [N-{4-[1-(Piperidine-3-carbonyl)-piperidin-4-yl]-3-trifluoromethyl-benzoyl}-guanidine]: the IC50 amounted to 17 nM.

As to `N=C(N)NC(=O)c1ccc(C2CCN(C(=O)C3CCNCC3)CC2)c(C(F)(F)F)c1` [N-{4-[1-(Piperidine-4-carbonyl)-piperidin-4-yl]-3-trifluoromethyl-benzoyl}-guanidine], the IC50 came to 6 nM.

Source of the values: patent publication US20110118262A1, “Pyrrolidinyl and Piperidinyl Compounds Useful as NHE-1 Inhibitiors” (BOEHRINGER INGELHEIM INTERNATIONAL GMBH, priority 2008, published 2011).
